In ChEMBL document CHEMBL3407368, “Further studies on anti-invasive chemotypes: An excursion from chalcones to curcuminoids” (Bioorg Med Chem Lett, 2015):
Active and inactive are the calls of the source. No cut-off for these calls is given here.

What was measured:
[1] = system: MCF7/6; assay: Antiinvasive activity against human MCF7/6 cells precultured with 9 day old chick embryo heart tissue fragment at 10 micromol/l by chick heart invasion assay; type: functional, cell-based
[2] = Antiinvasive activity against human MCF7/6 cells precultured with 9 day old chick embryo heart tissue fragment assessed as lowest concentration by chick heart invasion assay; type: functional
[3] = system: MCF7/6; assay: Antiinvasive activity against human MCF7/6 cells precultured with 9 day old chick embryo heart tissue fragment at 1 micromol/l by chick heart invasion assay; type: functional, cell-based
[4] = system: MCF7/6; assay: Antiinvasive activity against human MCF7/6 cells precultured with 9 day old chick embryo heart tissue fragment at 0.1 micromol/l by chick heart invasion assay; type: functional, cell-based
[5] = Cytotoxicity against human MCF7/6 cells at 10 umol/l; type: cell-based; details: mcf7/6, 10 µM
[6] = Cytotoxicity against human MCF7/6 cells at 100 umol/l; type: cell-based; details: mcf7/6, 100 µM
[7] = system: MCF7/6; assay: Antiinvasive activity against human MCF7/6 cells precultured with 9 day old chick embryo heart tissue fragment at 100 micromol/l by chick heart invasion assay; type: functional, cell-based
[8] = system: MCF7/6; assay: Antiinvasive activity against human MCF7/6 cells precultured with 9 day old chick embryo heart tissue fragment at 0.01 micromol/l by chick heart invasion assay; type: functional, cell-based

SMILES	Activity [1]	logMIC [2]	Activity [3]	Activity [4]	Activity [5]	Activity [6]	Activity [7]	Activity [8]
O=C(/C=C/c1ccccc1)c1ccccc1 [CHALCONE]	Active	1	inactive					
O=C(/C=C/C=C/c1ccccc1)c1ccccc1	inactive	2	inactive	inactive	Toxic	Toxic	Active	
COc1cc(/C=C/c2ccc(F)cc2)cc(OC)c1OC		0						
O=C(/C=C/C=C/c1ccccc1)/C=C/c1ccccc1	Active	0	Active	inactive		Toxic	Active	inactive
COc1cc(C(=O)/C=C/c2ccc(F)cc2)cc(OC)c1OC	Active	-2	Active	Active	Non-toxic			Active
O=C(/C=C/c1ccccc1)/C=C/c1ccccc1	Active	0	Active	inactive		Toxic	Active	inactive
O=C(/C=C/C=C/c1ccccc1)c1ccc(F)cc1		0	Active	inactive	Toxic	Toxic	Active	inactive
O=C(/C=C/c1ccc(O)cc1)CC(=O)/C=C/c1ccc(O)cc1 [BISDEMETHOXYCURCUMIN]	Active	1	inactive	inactive	Toxic			
COc1cc(/C=C/C(=O)CC(=O)/C=C/c2ccc(O)c(OC)c2)ccc1O [CURCUMIN]	Active	1	inactive	inactive				
O=C(/C=C/C=C/c1ccccc1)c1ccc(Cl)cc1	inactive	3	Active	inactive			Active	
COc1cc(/C=C\c2ccc(F)cc2)cc(OC)c1OC		1						
COc1cc(C(=O)/C=C/C=C/c2ccccc2)cc(OC)c1OC	Active	1	inactive	inactive	Toxic	Toxic	Active	inactive
COc1cc(C(=O)/C=C/C=C/c2ccc(F)cc2)cc(OC)c1OC	Active	1	inactive	inactive	Toxic			
C(=C\c1ccccc1)/c1ccccc1		-1						
